Consider 18 compounds from US10829484B2, “Compounds and methods for kinase modulation, and indications therefor” (Plexxikon Inc., priority 2015, dated 2020).

The target of this assay is T1, BaF3-FLT3-ITD-D835V (Homo sapiens, UniProt P36888, INS600HVDFREYEYD/D835V, cells depend on it).
T1 sequence (P36888 with tags, fused parts or gaps INS600HVDFREYEYD/D835V): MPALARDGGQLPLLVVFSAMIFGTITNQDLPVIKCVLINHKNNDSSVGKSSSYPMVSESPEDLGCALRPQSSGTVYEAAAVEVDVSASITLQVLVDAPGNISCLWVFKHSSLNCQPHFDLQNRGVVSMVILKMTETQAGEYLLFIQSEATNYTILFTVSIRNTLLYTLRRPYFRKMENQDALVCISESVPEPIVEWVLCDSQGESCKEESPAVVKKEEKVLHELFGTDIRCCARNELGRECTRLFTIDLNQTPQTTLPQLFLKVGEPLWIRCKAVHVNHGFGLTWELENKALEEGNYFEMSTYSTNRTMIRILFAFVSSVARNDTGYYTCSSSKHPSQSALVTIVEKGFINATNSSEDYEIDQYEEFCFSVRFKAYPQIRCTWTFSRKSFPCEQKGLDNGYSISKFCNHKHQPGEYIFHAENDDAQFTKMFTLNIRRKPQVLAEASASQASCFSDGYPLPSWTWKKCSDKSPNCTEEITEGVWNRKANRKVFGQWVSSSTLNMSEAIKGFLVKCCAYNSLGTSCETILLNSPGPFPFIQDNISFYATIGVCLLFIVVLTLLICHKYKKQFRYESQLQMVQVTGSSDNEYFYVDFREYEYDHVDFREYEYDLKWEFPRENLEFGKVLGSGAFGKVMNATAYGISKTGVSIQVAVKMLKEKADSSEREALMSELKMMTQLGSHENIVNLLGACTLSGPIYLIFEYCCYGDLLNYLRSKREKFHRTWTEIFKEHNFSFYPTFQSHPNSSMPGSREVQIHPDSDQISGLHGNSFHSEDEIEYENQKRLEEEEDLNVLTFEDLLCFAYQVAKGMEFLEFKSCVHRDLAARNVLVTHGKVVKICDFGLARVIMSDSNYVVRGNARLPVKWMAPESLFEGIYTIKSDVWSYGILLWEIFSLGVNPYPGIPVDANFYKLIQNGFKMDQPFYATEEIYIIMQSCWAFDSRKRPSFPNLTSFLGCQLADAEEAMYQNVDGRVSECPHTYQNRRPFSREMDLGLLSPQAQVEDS
The experiment in a line: CTB viability assay CS0048, BaF3-FLT3-ITD-D835V. The class given is cell-based, murine. Particulars: BaF3-FLT3-ITD-D835V cells, CellTiter Blue viability, 72 hours; read-out: Cell Assay: CS0048: BaF3-FLT3-ITD-D835V CTB:IC50. An excerpt: Gene constructs containing the human FLT3 sequences FLT3-ITD, FLT3-ITD-F691L, FLT3-ITD-D835V and FLT3-D835V were synthesized by reverse translation of the human protein sequences, with codons optimized for mammalian expression. Sequence of the internal tandem duplication (ITD) was based on the MV4-11 ITD sequence. Synthetic DNA constructs were cloned into the pMSCV puro retroviral vector (Clontech) and transfected into the EcoPack2-293 packaging cell line (Clontech) to generate retroviruses that contain the different FLT3 constructs. Viruses were transduced into the IL-3-dependent, murine […] cell line, Ba/F3, and selected for puromycin resistance and IL-3 independence. All cell lines were cloned by limiting dilution and clones were used for all subsequent cell assays. Overexpression of the FLT3 mutants in the Ba/F3 cells results in constitutive phosphorylation of the exogenous FLT3 protein, which is required for IL-3 independence.
Cell lines were serum starved overnight in media containing 0.5% FBS, plated at 15,000 cells/well in 96-well white-walled tissue culture plates, and 3-fold serial dilutions of test compounds of Formula I were added for 72 hours at 37° C. CellTiter Blue (CTB, Promega) was added and incubated for an additional 3 hours at 37° C. Fluorescence was read at 560 nm excitation, 590 nm emission. Wells with CTB+media only were used for background subtraction, and the fluorescence of compound-treated cells was normalized to the fluorescence of DMSO-treated cells. IC50s were determined using Igor Pro software. All compounds are assayed in duplicate cell plates.
On the technique in general: The colour change of resazurin is a common sign of viable cells or microbes.

With `COc1nn(C)cc1Nc1ncc(-c2ccc(CC(=O)Nc3cc(C4(C(F)(F)F)CC4)on3)c(F)c2)c(OC)n1` [P-123, 2-[2-fluoro-4-[4-methoxy-2-[(3-methoxy-1-methyl-pyrazol-4-yl)amino]pyrimidin-5-yl]phenyl]-N-[5-[1-(trifluoromethyl)cyclopropyl]isoxazol-3-yl]acetamide], the GI50 was in the range of 0.01 to 0.05 µM.

Turning to `COc1nn(C2CC2)cc1Nc1ncc(-c2ccc(CC(=O)Nc3cc(C4(C(F)(F)F)CC4)on3)c(F)c2)c(OC)n1` [P-136, 2-[4-[2-[(1-cyclopropyl-3-methoxypyrazol-4-yl)amino]-4-methoxy-pyrimidin-5-yl]-2-fluorophenyl]-N-[5-[1-(trifluoromethyl)cyclopropyl]isoxazol-3-yl]acetamide], the GI50 is 0.01 to 0.05 µM.

`Cc1nn(C)cc1Nc1ncc(-c2ccc(CC(=O)Nc3cc(C4(C(F)(F)F)CC4)on3)c(F)c2)c(C)n1` [P-116, 2-[4-[2-[(1,3-dimethylpyrazol-4-yl)amino]-4-methyl-pyrimidin-5-yl]-2-fluorophenyl]-N-[5-[1-(trifluoromethyl)cyclopropyl]isoxazol-3-yl] acetamide]: the GI50 fell in the range of 0.01 to 0.05 µM.

On to `O=C(Cc1ccc(-c2ccc(Nc3ccccc3)nc2)cc1F)Nc1cc(C2(C(F)(F)F)CC2)on1` [P-003, 2-[4-(6-anilino-3-pyridyl)-2-fluoro-phenyl]-N-[5-[1-(trifluoromethyl)cyclopropyl]isoxazol-3-yl]acetamide], for which the GI50 lay within 0.01 to 0.05 µM.

For the compound `CCn1nccc1Nc1ncc(-c2ccc(CC(=O)Nc3cc(C4(C(F)(F)F)CC4)on3)c(F)c2)cn1` [P-103, 2-[4-[2-[(2-ethylpyrazol-3-yl)amino]pyrimidin-5-yl]-2-fluorophenyl]-N-[5-[1-(trifluoromethyl)cyclopropyl]isoxazol-3-yl]acetamide], the GI50 was 0.01 to 0.05 µM.

As for `CC(O)c1nn(C)cc1Nc1ncc(-c2ccc(CC(=O)Nc3cc(C4(C(F)(F)F)CC4)on3)c(F)c2)cn1` (stereo not drawn) [P-114, 2-[2-fluoro-4-[2-[[3-(1-hydroxyethyl)-1-methylpyrazol-4-yl]amino]pyrimidin-5-yl]phenyl]-N-[5-[1-(trifluoromethyl)cyclopropyl]isoxazol-3-yl]acetamide], the GI50 was 0.01 to 0.05 µM.

Consider `Cc1nn(C)cc1Nc1ncc(-c2ccc(CC(=O)Nc3cc(C4(C(F)(F)F)CC4)on3)c(F)c2)c(Cl)n1` [P-157, 2-[4-[4-chloro-2-[(1,3-dimethylpyrazol-4-yl)amino]pyrimidin-5-yl]-2-fluoro-phenyl]-N-[5-[1-(trifluoromethyl)cyclopropyl]isoxazol-3-yl]acetamide], for which the GI50 lay in the range of 0.01 to 0.05 µM.

Consider `CCc1n[nH]cc1Nc1ncc(-c2ccc(CC(=O)Nc3cc(C4(C(F)(F)F)CC4)on3)c(F)c2)cn1` [P-214, 2-(4-(2-((3-ethyl-1H-pyrazol-4-yl)amino)pyrimidin-5-yl)-2-fluorophenyl)-N-(5-(1-(trifluoromethyl)cyclopropyl)isoxazol-3-yl)acetamide], for which the GI50 was 0.01 to 0.05 µM.

Turning to `Cc1cc(C(=O)N(C)C)ccc1Nc1ncc(-c2ccc(CC(=O)Nc3cc(C4(C(F)(F)F)CC4)on3)c(F)c2)cn1` [P-113, 4-[[5-[3-fluoro-4-[2-oxo-2-[[5-[1-(trifluoromethyl)cyclopropyl]isoxazol-3-yl]amino]ethyl]phenyl]pyrimidin-2-yl]amino]-N,N,3-trimethyl-benzamide], the GI50 was in the range of 0.01 to 0.05 µM.

Regarding `Cn1nccc1Nc1ncc(-c2ccc(CC(=O)Nc3cc(C4(C(F)(F)F)CC4)on3)c(F)c2)cn1` [P-091, 2-[2-fluoro-4-[2-[(2-methylpyrazol-3-yl)amino]pyrimidin-5-yl]phenyl]-N-[5-[1-(trifluoromethyl)cyclopropyl]isoxazol-3-yl]acetamide], the GI50 lay within 0.01 to 0.05 µM.

`COc1cc(Nc2ncc(-c3ccc(CC(=O)Nc4cc(C5(C(F)(F)F)CC5)on4)c(F)c3)cn2)n(C)n1` [P-164, 2-[2-fluoro-4-[2-[(5-methoxy-2-methyl-pyrazol-3-yl)amino]pyrimidin-5-yl]phenyl]-N-[5-[1-(trifluoromethyl)cyclopropyl]isoxazol-3-yl]acetamide]: the GI50 lay in the range of 0.01 to 0.05 µM.

`CCn1cnc(Nc2ncc(-c3ccc(CC(=O)Nc4cc(C5(C(F)(F)F)CC5)on4)c(F)c3)cn2)c1` [P-068, 2-[4-[2-[(1-ethylimidazol-4-yl)amino]pyrimidin-5-yl]-2-fluorophenyl]-N-[5-[1-(trifluoromethyl)cyclopropyl]isoxazol-3-yl]acetamide]: the GI50 fell in the range of 0.01 to 0.05 µM.

In the case of `O=C(Cc1ccc(-c2cnc(Nc3ccccc3)cn2)cc1F)Nc1cc(C2(C(F)(F)F)CC2)on1` [P-005, 2-[4-(5-anilinopyrazin-2-yl)-2-fluorophenyl]-N-[5-[1-(trifluoromethyl)cyclopropyl]isoxazol-3-yl]acetamide], the GI50 lay in the range of 0.01 to 0.05 µM.

`Cn1cc(Nc2ncc(-c3ccc(CC(=O)Nc4cc(C5(C(F)(F)F)CC5)on4)c(F)c3)cn2)c(C(F)(F)F)n1` [P-077, 2-[2-fluoro-4-[2-[[1-methyl-3-(trifluoromethyl)pyrazol-4-yl]amino]pyrimidin-5-yl]phenyl]-N-[5-[1-(trifluoromethyl)cyclopropyl]isoxazol-3-yl]acetamide]: the GI50 was in the range of 0.01 to 0.05 µM.

Regarding `Cn1cnc(Nc2ncc(-c3ccc(CC(=O)Nc4cc(C5(C)CC5)no4)c(F)c3)cn2)c1` [P-112, 2-[2-fluoro-4-[2-[(1-methylimidazol-4-yl)amino]pyrimidin-5-yl]phenyl]-N-[3-(1-methylcyclopropyl)isoxazol-5-yl]acetamide], the GI50 was 0.01 to 0.05 µM.

Turning to `COc1nn(C)cc1Nc1ncc(-c2ccc(CC(=O)Nc3cc(C4(C(F)(F)F)CC4)on3)c(F)c2)c(C)n1` [P-124, 2-[2-fluoro-4-[2-[(3-methoxy-1-methylpyrazol-4-yl)amino]-4-methyl-pyrimidin-5-yl]phenyl]-N-[5-[1-(trifluoromethyl)cyclopropyl]isoxazol-3-yl] acetamide], the GI50 lay in the range of 0.01 to 0.05 µM.

With `Cn1cnc(Nc2ncc(-c3ccc(CC(=O)Nc4cc(C5(C(F)F)CC5)on4)c(F)c3)cn2)c1` [P-184, N-[5-[1-(difluoromethyl)cyclopropyl]isoxazol-3-yl]-2-[2-fluoro-4-[2-[(1-methylimidazol-4-yl)amino]pyrimidin-5-yl]phenyl] acetamide], the GI50 lay in the range of 0.01 to 0.05 µM.

As for `COCCOc1nn(C)cc1Nc1ncc(-c2ccc(CC(=O)Nc3cc(C4(C(F)(F)F)CC4)on3)c(F)c2)cn1` [P-148, 2-[2-fluoro-4-[2-[[3-(2-methoxyethoxy)-1-methylpyrazol-4-yl]amino]pyrimidin-5-yl]phenyl]-N-[5-[1-(trifluoromethyl)cyclopropyl]isoxazol-3-yl]acetamide], the GI50 lay in the range of 0.01 to 0.05 µM.
